Experimental data published in paper PMC12686126, “LL‐37 Inhibits TMPRSS2‐Mediated S2' Site Cleavage and SARS‐CoV‐2 Infection but Not Omicron Variants” (Cell Proliferation, 2025).

Columns and labels:
[1] = tested on: S2 subunit of BA.2, BA.2.75, BA.4, BA.5, BQ.1, XBB, XBB.1.5, XBB.1.16, CH.1.1, XBB.1.9, XBB.2.3 and EG.5.1; format: binding, SARS‐CoV‐2 Omicron variants
[2] = tested on: S2 subunit of Omicron variants; format: binding, SARS‐CoV‐2 Omicron variants

Sequence: LLGDFFRKSKEKIGKEFKRIVQRIKDFLRNLVPRTES [LL‐37]
- binding of S2 subunit to immobilised LL‐37 [1]: much lower binding
- S2 subunit bound to plasma membrane with facilitation by LL‐37 [2]: S2 subunit of SARS‐CoV‐2 rather than Omicron variants obviously bound
